{"source": "patent US4272524A", "about": "“N-Acyl-muramyl peptide derivatives having anti-infectious infections properties” (priority 1976, dated 1981)", "system": "Klebsiella pneumoniae", "experiment": "Response of mice to an intramuscular infection by 10^4 Klebsiella pneumoniae (Table 2)", "type": "in vivo", "key": {"[1]": {"details": "i.v. hour + 1 after inoculation, 100 μg per animal"}, "[2]": {"details": "per os day-1, 2,000 μg per animal"}}}
{"compound": "CC(=O)N[C@H]1C(O)O[C@H](CO)[C@@H](O)[C@@H]1O[C@H](C)C(=O)N[C@@H](C)C(=O)N[C@H](CCC(N)=O)C(=O)O", "note": "(stereo partly drawn) [Ac--Mur--L-Ala--D-Glu--γ(NH2)]", "values": [{"measurement": "Survival (%) D + 3", "setting": "i.v. day-1, 100 μg per animal", "result": 92, "unit": "%"}, {"measurement": "Survival (%) D + 5", "setting": "i.v. day-1, 100 μg per animal", "result": 79, "unit": "%"}, {"measurement": "Survival (%) D + 8", "setting": "i.v. day-1, 100 μg per animal", "result": 67, "unit": "%"}]}
{"compound": "Ac--Mur--L-Ala--D-Glu-- γ(L-Ala)--NH2 [Ac--Mur--L-Ala--D-Glu--(L-Ala)--NH2]", "values": [{"measurement": "Survival (%) D + 3", "setting": "i.v. day-1, 100 μg per animal", "result": 100, "unit": "%"}, {"measurement": "Survival (%) D + 5", "setting": "i.v. day-1, 100 μg per animal", "result": 94, "unit": "%"}, {"measurement": "Survival (%) D + 8", "setting": "i.v. day-1, 100 μg per animal", "result": 63, "unit": "%"}]}
{"compound": "Ac--Mur--L-Ala--D-Glu-- γ(L-Lys)--NH2 [Ac--Mur--L-Ala--D-Glu--(L-Lys)--NH2]", "values": [{"measurement": "Survival (%) D + 3", "setting": "i.v. day-1, 100 μg per animal", "result": 100, "unit": "%"}, {"measurement": "Survival (%) D + 5", "setting": "i.v. day-1, 100 μg per animal", "result": 93, "unit": "%"}, {"measurement": "Survival (%) D + 8", "setting": "i.v. day-1, 100 μg per animal", "result": 73, "unit": "%"}, {"measurement": "Survival (%) D + 3", "setting": "[1]", "result": 91, "unit": "%"}, {"measurement": "Survival (%) D + 5", "setting": "[1]", "result": 78, "unit": "%"}, {"measurement": "Survival (%) D + 8", "setting": "[1]", "result": 66, "unit": "%"}, {"measurement": "Survival (%) D + 3", "setting": "[2]", "result": 81, "unit": "%"}, {"measurement": "Survival (%) D + 5", "setting": "[2]", "result": 81, "unit": "%"}, {"measurement": "Survival (%) D + 8", "setting": "[2]", "result": 56, "unit": "%"}, {"measurement": "Survival (%) D + 3", "setting": "s.c. day-1, 100 μg per animal", "result": 100, "unit": "%"}, {"measurement": "Survival (%) D + 5", "setting": "s.c. day-1, 100 μg per animal", "result": 81, "unit": "%"}, {"measurement": "Survival (%) D + 8", "setting": "s.c. day-1, 100 μg per animal", "result": 75, "unit": "%"}]}
{"compound": "Ac--Mur--L-Ala--D-Glu-- γ(L-Lys--L-Ala)--NH2 [Ac--Mur--L-Ala--D-Glu--(L-Lys--L-Ala)]", "values": [{"measurement": "Survival (%) D + 3", "setting": "i.v. day-1, 100 μg per animal", "result": 96, "unit": "%"}, {"measurement": "Survival (%) D + 5", "setting": "i.v. day-1, 100 μg per animal", "result": 79, "unit": "%"}, {"measurement": "Survival (%) D + 8", "setting": "i.v. day-1, 100 μg per animal", "result": 71, "unit": "%"}]}
